Assay results: paper PMC10669220, “In Vitro α-Glucosidase and α-Amylase Inhibition, Cytotoxicity and Free Radical Scavenging Profiling of the 6-Halogeno and Mixed 6,8-Dihalogenated 2-Aryl-4-methyl-1,2-dihydroquinazoline 3-Oxides” (Antioxidants, 2023)
Where two headings read alike, the source gives them in different places.

Columns and labels:
[1] = test system: human embryonic kidney (HEK293-T) cell line; assay: MTT cytotoxicity assay, HEK293-T; details: for Cell viability percentage, HEK293-T: Table S4; for IC50: read-out: IC50 Hek293-T
Protocol: (§1) Cells were cultured in sterile Dulbecco’s Minimal Essential Medium (DMEM, Gibco) supplemented with 10% fetal bovine serum (FBS) and 1% penicillin-streptomycin solution. […] Cell counting was carried out using a handheld automated cell counter (Scapter 3.0™, Merck, Burlington, MA, USA) and seeded (1 × 10^4 cells/well) into a 96-well plate. After 24 h, the cells were treated with different concentrations (1, 5, 10, 25 and 50 µM) of the test compounds and reference standards prepared in DMEM. The MTT solution (20 μL) prepared in PBS (5 mg/mL) was added to all the wells, and the plates were incubated for 4 h, followed by 1 h incubation with 100 µL of dimethyl sulfoxide (DMSO) to dissolve the formazan crystals. Untreated cells and 5% DMSO were included in the experiment as negative controls. All experiments were performed in triplicate. The plates were read at 570 nm at a reference wavelength of 630 nm using an ELISA plate reader (Varioskan Flash, ThermoFisher Scientific, Vantaa, Finland). The percentage of cell viability was calculated using the following formula, Cell viability %=At/Ab×100 where At represents the absorbance value of test compound and Ab the absorbance value of the blank. […] The data were expressed as means ± SD.

[2] = test system: breast cancer (MCF-7) cell line; assay: MTT cytotoxicity assay, MCF-7; details: for Cell viability percentage, MCF-7: Table S2
Protocol: as §1

[3] = NO free radical scavenging assay (sodium nitroprusside/Griess); details: mean ± SD; sodium nitroprusside, Griess reagent, 550 nm
Protocol: The assay was conducted following the method described in our previous study. A mixture of 10 mM sodium nitroprusside (20 µL), phosphate buffer (5 µL) and the test compound (5 µL) were incubated at 25 °C in a 96-well plate for 2.5 h. After incubation, 20 µL of Griess reagent (1.00 g of sulfanilic acid + 0.10 g naphthylethylene diamine dihydrochloride) was added to the previous mixture and allowed to stand for 30 min. […] Each experiment was performed in triplicate, and the average was taken. The average obtained from the absorbance readings was used to calculate the IC50 values in GraphPad prism from nonlinear regression dose–response curves.

[4] = DPPH radical scavenging assay; details: mean ± SD; 45 min in the dark; 512 nm
Protocol: The DPPH radical scavenging assay was conducted following the procedure described in our previous study. The test compounds and ascorbic acid at various concentrations (ranging from 0 µM to 50 µM) in DMSO were mixed with a solution of DPPH (0.20 mM) in methanol and incubated in the dark for 45 min. Five absorbance readings were recorded at 512 nm using an Elisa plate reader (Varioskan Flash, ThermoFisher Scientific, Vantaa, Finland). The experiment was carried out in triplicate, and averaged values from the absorbance readings were used to determine the IC50 and standard deviation values in GraphPad prism from nonlinear regression dose–response curves.

human α-amylase = molecular target: T1, human α-amylase (Homo sapiens, UniProt P04746); assay: α-amylase inhibitor screening kit assay; type: biochemical; details: mean ± SD, triplicate; tested at 1, 5, 10, 25, 50 µM
T1 construct: purchased Abcam ab283391
T1 sequence (P04746 16-511): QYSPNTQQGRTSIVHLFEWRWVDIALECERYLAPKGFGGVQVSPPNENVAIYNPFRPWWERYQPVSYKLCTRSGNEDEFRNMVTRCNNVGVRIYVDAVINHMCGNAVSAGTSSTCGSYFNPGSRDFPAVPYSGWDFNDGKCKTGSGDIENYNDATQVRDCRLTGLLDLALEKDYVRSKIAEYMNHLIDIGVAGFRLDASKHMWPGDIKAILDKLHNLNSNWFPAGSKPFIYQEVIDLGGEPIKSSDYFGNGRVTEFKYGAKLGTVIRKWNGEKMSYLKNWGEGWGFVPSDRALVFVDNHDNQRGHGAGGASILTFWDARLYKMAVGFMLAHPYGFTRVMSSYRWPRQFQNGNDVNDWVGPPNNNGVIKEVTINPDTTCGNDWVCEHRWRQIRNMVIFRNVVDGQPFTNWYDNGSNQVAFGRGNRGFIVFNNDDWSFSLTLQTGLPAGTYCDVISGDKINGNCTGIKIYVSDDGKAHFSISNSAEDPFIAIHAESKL
Protocol: The α-amylase assay was performed in triplicate, using a 96-well plate following the procedure recommended by the manufacturer as outlined in the α-amylase inhibitor Screening Kit (Catalogue No. ab283391; Abcam). […] The average values obtained from the absorbance readings were used to determine the IC50 and standard deviation values in GraphPad prism from nonlinear regression dose–response curves.

[5] = molecular target: T2, α-Glucosidase type 1 from baker's yeast (Saccharomyces cerevisiae, UniProt P53341); assay: biochemical; details: mean ± SD, triplicate, tested at 1, 5, 10, 25, 50 µM
T2 construct: purchased Sigma Aldrich (Pty) Ltd. G5003
Protocol: The assay was conducted in triplicate following a method described in our previous study. […] After pre-incubation, 17 µL of 2 mM PNP-G was added. The absorbances were recorded in a 96-well microplate at 400 nm using an Elisa plate reader (Varioskan Flash, ThermoFischer Scientific, Vantaa, Finland). The average values obtained from the readings were used to determine the IC50 and standard deviation values using a GraphPad Prism software (Version 8, GraphPad Software Inc., San Diego, CA, USA). The average values obtained from the absorbance readings were used to determine the IC50 and standard deviation values in GraphPad prism from nonlinear regression dose–response curves.

[6] = test system: lung cancer (A549) cell line; assay: MTT cytotoxicity assay, A549; details: for Cell viability percentage, A549: Table S3
[7] = MTT cytotoxicity assay, HEK293-T; details: human, HEK293-T cells
Protocol: as §1

[8] = Homo sapiens, MCF7, read-out: IC50 MCF-7
[9] = Homo sapiens, A549, read-out: IC50 A549

T2 sequence (P53341 whole entry): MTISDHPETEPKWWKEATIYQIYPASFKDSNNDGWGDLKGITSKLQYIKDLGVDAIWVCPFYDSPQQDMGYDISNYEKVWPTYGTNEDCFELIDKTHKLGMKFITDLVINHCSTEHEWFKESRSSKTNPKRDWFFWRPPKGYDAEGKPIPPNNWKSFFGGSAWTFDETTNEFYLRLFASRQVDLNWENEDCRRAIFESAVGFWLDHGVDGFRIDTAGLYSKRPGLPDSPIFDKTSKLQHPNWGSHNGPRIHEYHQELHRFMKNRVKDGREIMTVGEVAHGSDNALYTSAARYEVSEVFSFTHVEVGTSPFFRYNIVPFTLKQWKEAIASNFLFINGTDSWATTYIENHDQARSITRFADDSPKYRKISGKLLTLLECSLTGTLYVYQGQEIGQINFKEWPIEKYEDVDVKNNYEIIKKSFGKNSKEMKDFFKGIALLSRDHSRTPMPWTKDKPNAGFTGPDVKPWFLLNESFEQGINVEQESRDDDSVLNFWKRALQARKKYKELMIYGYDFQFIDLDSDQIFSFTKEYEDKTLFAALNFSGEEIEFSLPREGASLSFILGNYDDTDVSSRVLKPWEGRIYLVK

Compound	Cell viability percentage, MCF-7 ([2]; Conc. 1 (µM per method))	Cell viability percentage, MCF-7 ([2]; Conc. 5 (µM per method))	Cell viability percentage, MCF-7 ([2]; Conc. 10 (µM per method))	Cell viability percentage, MCF-7 ([2]; Conc. 25 (µM per method))	Cell viability percentage, MCF-7 ([2]; Conc. 50 (µM per method))	IC50 [3] [µM]	IC50 [4] [µM]	IC50 (human α-amylase) [µM]	Cell viability percentage, A549 ([6]; Conc. 1 (µM per method))	Cell viability percentage, A549 ([6]; Conc. 5 (µM per method))	Cell viability percentage, A549 ([6]; Conc. 10 (µM per method))	Cell viability percentage, A549 ([6]; Conc. 25 (µM per method))	Cell viability percentage, A549 ([6]; Conc. 50 (µM per method))	viability at 1 µM [7] [%]	viability at 5 µM [7] [%]	viability at 10 µM [7] [%]	viability at 25 µM [7] [%]	IC50 ([1]; Homo sapiens, HEK-293T) [µM]	IC50 [2, 8] [µM]	IC50 [6, 9] [µM]	other results
CC1=[N+]([O-])C(c2ccc(Cl)cc2)Nc2ccc(I)cc21 (racemic) [Compound 3g]	42,0991%	37,841%	36,5769%	35,8117%	33,9155%	4.25 ± 0.005	26.88 ± 0.043	53.42 ± 0.01	72,7416%	56,2268%	50,6131%	43,0757%	33,0296%								Cell viability percentage, HEK293-T ([1]; Conc. 1 (µM per method)): 63,41%; Cell viability percentage, HEK293-T ([1]; Conc. 5 (µM per method)): 46,5251%; Cell viability percentage, HEK293-T ([1]; Conc. 10 (µM per method)): 41,062%; Cell viability percentage, HEK293-T ([1]; Conc. 25 (µM per method)): 31,41%; Cell viability percentage, HEK293-T ([1]; Conc. 50 (µM per method)): 17,0502%; IC50 ([1]; MTT, normal cell line, mean ± SD, triplicate, 1-50 µM): 21.7 ± 0.13 µM; IC50 ([2]; read-out: IC50 MCF-7, MTT, mean ± SD, triplicate, 1-50 µM): 10.38 ± 0.08 µM; IC50 ([5]; read-out: IC50 α-Glucosidase): 15.08 ± 0.08 µM; IC50 ([6]; read-out: IC50 A549, MTT, mean ± SD, triplicate, 1-50 µM): 18.63 ± 0.11 µM
CC1=[N+]([O-])C(c2ccc(F)cc2)Nc2ccc(Br)cc21 (stereo not shown) [Compound 3b]	39,7538%	38,34%	35,1963%	33,8157%	30,3061%	15.1 ± 0.029	1.07 ± 0.048	36.35 ± 0.01	69,0066%	60,8505%	56,1818%	42,7495%	28,8446%	41.6	41.3	40.3	38.5	41.72 ± 0.04	12.8 ± 0.07	19.31 ± 0.08	viability at 50 µM [7]: 35.8%; melting point: 183 to 185 °C; IC50 ([5]; IC50 α-Glucosidase): 7.47 ± 0.05 µM
COc1ccc(C2Nc3ccc(Br)cc3C(C)=[N+]2[O-])cc1 (stereo not shown) [Compound 3d]	47,0559%	46,8729%	44,0286%	43,2136%	38,6394%	24.42 ± 0.004	9.55 ± 0.006	54.08 ± 0.03						75.1	60.1	54.1	30.6	37.53 ± 0.18	13.68 ± 0.09	13.45 ± 0.03	viability at 50 µM [7]: 17.6%; melting point: 194 to 196 °C; IC50 ([5]; IC50 α-Glucosidase): 68.2 ± 0.01 µM
CC1=[N+]([O-])C(c2ccccc2)Nc2ccc(I)cc21 (stereo not shown) [Compound 3e]	27,8443%	22,0559%	23,6194%	19,7272%	17,2488%	52.38 ± 0.003	1.1 ± 0.031	49.5 ± 0.06	74,9578%	64,338%	52,0419%	40,2408%	30,3184%	69.7	60	40	31.9	20.12 ± 0.06	15.83 ± 0.14	11.4 ± 0.12	viability at 50 µM [7]: 20%; melting point: 184 to 186 °C; IC50 ([5]; IC50 α-Glucosidase): 6.04 ± 0.01 µM
COc1ccc(C2Nc3ccc(I)cc3C(C)=[N+]2[O-])cc1 (stereo not shown) [Compound 3h]	45,0932%	44,5775%	43,1304%	41,2009%	37,5083%	10.05 ± 0.003	0.21 ± 0.057	55.72 ± 0.02	87,7714%	86,9389%	64,8667%	56,0806%	38,362%	33.3	32.6	30.8	29.7	24.26 ± 0.04	22.62 ± 0.12	18.71 ± 0.16	viability at 50 µM [7]: 28.1%; melting point: 176 to 179 °C; IC50 ([5]; IC50 α-Glucosidase): 27.18 ± 0.02 µM
CC1=[N+]([O-])C(c2ccc(F)cc2)Nc2c(I)cc(Br)cc21 (stereo not shown) [Compound 3j]	60,354%	53,8289%	40,413%	30,7493%	22,7375%	5.17 ± 0.007	61.01 ± 0.053	17.48 ± 0.03	79,064%	67,1729%	57,7455%	42,6257%	29,7109%	67.6	72.8	54.5	33.9	32.83 ± 0.06	15.06 ± 0.01	13.7 ± 0.12	viability at 50 µM [7]: 19.4%; melting point: 170 to 173 °C; IC50 ([5]; IC50 α-Glucosidase): 19.69 ± 0.01 µM
CC1=[N+]([O-])C(c2ccc(Cl)cc2)Nc2c(I)cc(Br)cc21 (stereo not shown) [Compound 3k]	42,1823%	41,6001%	39,6041%	38,7891%	38,1737%	15 ± 0.005	4.08 ± 0.038	4.46 ± 0.02	78,5578%	73,6416%	60,0068%	42,682%	32,6808%	61.3	55.4	42.5	31.6	21.04 ± 0.05	16.65 ± 0.05	15.37 ± 0.13	viability at 50 µM [7]: 24%; IC50 ([5]; read-out: IC50 α-Glucosidase): 13.47 ± 0.04 µM
COc1cccc2c1C(=O)c1c(O)c3c(c(O)c1C2=O)C[C@@](O)(C(=O)CO)C[C@@H]3O[C@H]1C[C@H](N)[C@H](O)[C@H](C)O1 [Doxorubicin, doxorubicin, reference compound]																		0.87 ± 0.04	0.25 ± 0.05	0.36 ± 0.07	
